# Laboratory results published in patent US4244965A, “Azetidinoyl ethers” (Beecham Group Limited, priority 1978, dated 1981).
# Where “and” joins values, the source holds several entries; their conditions need not be identical. Identical values can stand only once. Like-named read-outs stand apart in the source and are kept apart here.
# Assays:
# [1] = test system: Kleb E 70; assay: standard microliter MIC test (Demonstrations 3-5); assay type: cell-based, Klebsiella
# [2] = test system: Proteus C 889; assay: standard microliter MIC test (Demonstrations 3-5); assay type: cell-based; conditions: for MIC (ampicillin + title compound): trailing end point; for MIC: alone
# [3] = test system: E. coli JT 39; assay: standard microliter MIC test (Demonstrations 3-5); assay type: cell-based; conditions: for MIC: alone
# [4] = test system: Staph Russell; assay: standard microliter MIC test (Demonstrations 3-5); assay type: cell-based; conditions: for MIC: alone
# [5] = test system: E. coli JT 410; assay: standard microliter MIC test (Demonstrations 3-5); assay type: cell-based
# [6] = test system: Escherichia coli JT39; assay: Amoxycillin with or without synergist, E. coli JT39 intraperitoneal infection of mice, subcutaneous (Demonstration 1a); assay type: in vivo, Escherichia coli (infected mice); conditions: JT39, sc, antibiotic alone, sub-cutaneous, 1 and 5 hours post infection, read-out: CD50 (the source's name)
# Experimental: (§1) a. Sub-cutanvenous administration: Groups of mice were infected inter peritoneally with Escherichia coli JT39. At 1 and 5 hours post infection the mice were treated with amoxycillin (Amox.) or with amoxycillin and synergist. The solutions were made up in phosphate buffer.
# [7] = test system: Escherichia coli JT39; assay: Amoxycillin with or without synergist, E. coli JT39 intraperitoneal infection of mice, oral (Demonstration 1b); assay type: in vivo, Escherichia coli (infected mice); conditions: antibiotic alone, oral, 1, 3 and 5 hours post-infection, read-out: CD50 (the source's name)
# Experimental: (§2) b. Oral administration: Groups of mice were infected inter peritoneally with Escherichia coli JT39. At 1, 3 and 5 hours post-infection the mice were treated with amoxycillin or with amoxycillin and synergist. The solutions were made up in phosphate buffer.
# [8] = test system: Escherichia coli JT 39; assay: intra peritoneal infection due to Escherichia coli JT 39 in mice, subcutaneous dosing (Demonstration 2b); assay type: in vivo, Escherichia coli (infected mice); conditions: for ED50: Escherichia coli, JT39, sc, alone, × 2, sub-cutaneous, 1 and 5 hours post infection, read-out: C50
# Experimental: b. […] Dosing was sub-cutaneous and 1 and 5 hours post infection.
# [9] = test system: Escherichia coli JT39; assay: standard MIC test (Demonstration 1c); assay type: cell-based
# [10] = test system: E. coli JT 39; assay: conventional microliter method, MIC (Demonstration 2a); assay type: cell-based; conditions: Escherichia coli, JT39
# Experimental: (§3) a. The antibacterial and synergistic activity of the title compound (referred to as "Sunergist" in the Table) was determined by a conventional microliter method.
# [11] = test system: Proteus C 889; assay: as above; assay type: cell-based
# Experimental: as §3
# [12] = test system: Staph. aureus Russell; assay: standard MIC test (Demonstration 1c); assay type: cell-based; conditions: Staphylococcus aureus
# [13] = test system: Pseudomonas Dalgleish; assay: microbe, parasite or virus in culture; assay type: cell-based
# Experimental: as §3
# [14] = Signs of drug toxicity during the in-vivo tests (Demonstration 1); conditions: mice
# Experimental: as §1, with “buffer. The results were as follows:” for “buffer.”
# as §2
# [15] = test system: gram negative bacteria such as Escherichia and Klebsiella and gram positive bacteria such as Staphylococcus; assay: Summary of the synergy tests with penicillins (Demonstration 1d); conditions: summary of preceding tests
# Experimental: as §1, with “buffer. The results were as follows:” for “buffer.”
# as §2
# [16] = test system: Klebsiella E70; assay: standard MIC test (Demonstration 1c); assay type: cell-based; conditions: alone
# [17] = test system: Staph. Russell; assay: conventional microliter method, MIC (Demonstration 2a); assay type: cell-based; conditions: alone
# Experimental: as §3
# [18] = test system: Kleb. E 70; assay: as above; assay type: cell-based; conditions: Klebsiella; alone
# Experimental: as §3
# [19] = test system: E. coli JT 410; assay: as above; assay type: cell-based; conditions: Escherichia coli, JT410; alone
# Experimental: as §3
# [20] = Urinary recovery after oral administration to dogs (Demonstration 6); assay type: in vivo; conditions: for dose excreted at 24 h: dog, urine, po, 5 mg/kg
# Experimental: (§4) Lithium 9-O-(azetidin-2'-on-4'-yl)clavulanate was administered orally to a group of eight dogs, weighing 9-12 kg, at a dosage of 5 mg/kg.
# The urinary recovery of the compound over 24 hours was also measured.
# [21] = Average blood levels after oral administration to dogs (Demonstration 6); assay type: in vivo; conditions: dog, 5 mg/kg
# Experimental: as §4
# The level of the compound in the blood was measured after 0.25, 0.5, 1, 2, 4 and 6 hours. The results are shown in Table 1, with those for sodium clavulanate for comparison.
# [22] = Klebsiella, E70, alone, read-out: MIC
# [23] = Escherichia coli, JT39, read-out: MIC
# [24] = Escherichia coli, JT410, alone, read-out: MIC
smiles,measurement,setting,value
NCC(=O)NCCOCC=C1OC2CC(=O)N2C1C(=O)O (centres unmarked) [9-O-[(N-Glycyl)-2-aminoethyl]clavulanic acid],MIC (ampicillin + title compound),[1]; Amp. + 1 μg/ml of title comp.,6.25 µg/mL
same,MIC (ampicillin + title compound),[1]; Amp. + 5 μg/ml of title comp.,1.5 µg/mL
same,MIC,[1]; alone,62.5 µg/mL
same,MIC (ampicillin + title compound),[2]; Amp. + 1 μg/ml of title comp.,8 µg/mL
same,MIC (ampicillin + title compound),[2]; Amp. + 5 μg/ml of title comp.,2 µg/mL
same,MIC,[2],250 µg/mL
same,MIC (ampicillin + title compound),[3]; Amp. + 1 μg/ml of title comp.,31.2 µg/mL
same,MIC (ampicillin + title compound),[3]; Amp. + 5 μg/ml of title comp.,8 µg/mL
same,MIC,[3],31.2 µg/mL
same,MIC (ampicillin + title compound),[4]; Amp. + 1 μg/ml of title comp.,1.25 µg/mL
same,MIC (ampicillin + title compound),[4]; Amp. + 5 μg/ml of title comp.,0.15 µg/mL
same,MIC,[4],8 µg/mL
same,MIC (ampicillin + title compound),[5]; Amp. + 5 μg/ml of title comp.,62.5 µg/mL
same,MIC,[5]; alone,62.5 µg/mL
"CC1(C)S[C@@H]2[C@H](NC(=O)[C@H](N)c3ccc(O)cc3)C(=O)N2[C@H]1C(=O)O [Amoxycillin, amoxycillin]",ED50,[6],> 1000 mg/kg
same,ED50,[7],> 1000 mg/kg
same,ED50,[8],> 1000 mg/kg
"CC1(C)S[C@@H]2[C@H](NC(=O)[C@H](N)c3ccccc3)C(=O)N2[C@H]1C(=O)O [Ampicillin, ampicillin, reference compound]",MIC,[9],2000 µg/mL
same,MIC,[10],2000 µg/mL
same,MIC,[11],1000 µg/mL
same,MIC,"[1]; Klebsiella, E70",1000 µg/mL
same,MIC,"[1]; Klebsiella, E70, alone",500 µg/mL
same,MIC,[2],2000 µg/mL and > 2000 µg/mL
same,MIC,[12],62 µg/mL
same,MIC,"[3]; Escherichia coli, JT39",2000 µg/mL
same,MIC,[3],1000 µg/mL
same,MIC,[13],> 2000 µg/mL
same,MIC,"[5]; Escherichia coli, JT410",250 µg/mL
Cc1nnc(SCC2=C(C(=O)O)N3C(=O)[C@@H](NC(=O)Cn4cnnn4)[C@H]3SC2)s1 [Cefazolin],ED50,[8],13 mg/kg
"O=C1CC(OC/C=C2\O[C@@H]3CC(=O)N3[C@H]2C(=O)O)N1 (some centres unmarked) [Example 2, Sodium 9-O-(azetidin-2'-on-4'-yl)clavulanate]",MIC,"[9]; alone, read-out: MIC",31.2 µg/mL
same,MIC,"[12]; alone, read-out: MIC",8 µg/mL
same,signs of drug toxicity,[14],No signs of drug toxicity were observed
same,synergism with penicillins such as amoxycillin,[15],effective synergist for penicillins such as amoxycillin
same,MIC,[16],31.2 µg/mL
"CC(NC=O)OC/C=C1\O[C@@H]2CC(=O)N2[C@H]1C(=O)O (some centres unmarked) [Example 9, Lithium 9-O-(1-formamidoethyl)clavulanate]",MIC,[17],8 µg/mL
same,MIC,[18],62.5 µg/mL
same,MIC,[19],31.2 µg/mL
same,MIC,"[10]; alone, read-out: MIC",62.5 µg/mL
same,MIC,"[11]; alone, read-out: MIC",62.5 µg/mL
same,MIC,[13],> 500 µg/mL
same,effect on the effectiveness of amoxycillin,"[8]; with amoxycillin, sub-cutaneous",enhance the effectiveness of amoxycillin
"N[C@@H]1C(=O)N[C@H]1OC/C=C1\O[C@@H]2CC(=O)N2[C@H]1C(=O)O [Example 13, 9-O-[(3S,4S)-2'-Oxo-3'-aminoazetidin-4'-yl]clavulanic acid]",MIC,[1]; [22],62.5 µg/mL
same,MIC,[2]; read-out: MIC,62.5 µg/mL
same,MIC,[3]; [23],62.5 µg/mL
same,MIC,[4]; read-out: MIC,62.5 µg/mL
same,MIC,[5]; [24],62.5 µg/mL
"N[C@@H]1C(=O)N[C@@H]1OC/C=C1\O[C@@H]2CC(=O)N2[C@H]1C(=O)O [Example 14, 9-O-[(3S,4R)-2'-Oxo-3'-aminoazetidin-4'-yl]-clavulanic acid]",MIC,[1]; [22],62.5 µg/mL
same,MIC,[2]; read-out: MIC,62.5 µg/mL
same,MIC,[3]; [23],31.2 µg/mL
same,MIC,[4]; read-out: MIC,62.5 µg/mL
same,MIC,[5]; [24],62.5 µg/mL
"O=C1CC(OC/C=C2\O[C@@H]3CC(=O)N3[C@H]2C(=O)O)N1 (some centres unmarked) [Example 27, Lithium 9-O-(2'-oxoazetidin-4'-yl)-clavulanate]",Urinary Recovery,"[20]; 0-6 hour, Dog No. 1, 5 mg/kg",10.8 mg
same,Urinary Recovery,"[20]; 0-6 hour, Dog No. 2, 5 mg/kg",14.8 mg
same,Urinary Recovery,"[20]; 0-6 hour, Dog No. 3, 5 mg/kg",13.1 mg
same,Urinary Recovery,"[20]; 0-6 hour, Dog No. 4, 5 mg/kg",29.5 mg
same,Urinary Recovery,"[20]; 0-6 hour, Dog No. 5, 5 mg/kg",18.5 mg
same,Urinary Recovery,"[20]; 0-6 hour, Dog No. 6, 5 mg/kg",9.2 mg
same,Urinary Recovery,"[20]; 0-6 hour, Dog No. 7, 5 mg/kg",9.25 mg
same,Urinary Recovery,"[20]; 0-6 hour, Dog No. 8, 5 mg/kg",12.15 mg
same,Urinary Recovery,"[20]; 0-24 hour, Dog No. 1, 5 mg/kg",11.7 mg
same,Urinary Recovery,"[20]; 0-24 hour, Dog No. 2, 5 mg/kg",17.4 mg
same,Urinary Recovery,"[20]; 0-24 hour, Dog No. 3, 5 mg/kg",18.8 mg
same,Urinary Recovery,"[20]; 0-24 hour, Dog No. 4, 5 mg/kg",29.9 mg
same,Urinary Recovery,"[20]; 0-24 hour, Dog No. 5, 5 mg/kg",19.6 mg
same,Urinary Recovery,"[20]; 0-24 hour, Dog No. 6, 5 mg/kg",10.3 mg
same,Urinary Recovery,"[20]; 0-24 hour, Dog No. 7, 5 mg/kg",11.1 mg
same,Urinary Recovery,"[20]; 0-24 hour, Dog No. 8, 5 mg/kg",12.3 mg
same,dose excreted at 24 h,"[20]; Dog No. 1, read-out: Urinary Recovery, % over 24 hour",20.1%
same,dose excreted at 24 h,"[20]; Dog No. 2, read-out: Urinary Recovery, % over 24 hour",38.6%
same,dose excreted at 24 h,"[20]; Dog No. 3, read-out: Urinary Recovery, % over 24 hour",32.1%
same,dose excreted at 24 h,"[20]; Dog No. 4, read-out: Urinary Recovery, % over 24 hour",52.4%
same,dose excreted at 24 h,"[20]; Dog No. 5, read-out: Urinary Recovery, % over 24 hour",37.3%
same,dose excreted at 24 h,"[20]; Dog No. 6, read-out: Urinary Recovery, % over 24 hour",17.2%
same,dose excreted at 24 h,"[20]; Dog No. 7, read-out: Urinary Recovery, % over 24 hour",19.1%
same,dose excreted at 24 h,"[20]; Dog No. 8, read-out: Urinary Recovery, % over 24 hour",19.5%
same,concentration at 0.25 h,[21],1450 ng/mL
same,concentration at 0.5 h,[21],3640 ng/mL
same,concentration at 1 h,[21],4780 ng/mL
same,concentration at 2 h,[21],3790 ng/mL
same,concentration at 4 h,[21],710 ng/mL
same,concentration at 6 h,[21]; 6 hours,< 200 ng/mL
"O=C(O)[C@H]1/C(=C/CO)O[C@@H]2CC(=O)N21 [sodium clavulanate, reference compound]",concentration at 0.25 h,[21],960 ng/mL
same,concentration at 0.5 h,[21],3110 ng/mL
same,concentration at 1 h,[21],2910 ng/mL
same,concentration at 2 h,[21],1680 ng/mL
same,concentration at 4 h,[21],280 ng/mL
